This passage reports cytotoxicity results from ChEMBL document CHEMBL3507680, “University of Dundee, Gates Library screen for HepG2 cell viability”.

Molecules are shown by their SMILES.

This series in a line: Human HepG2 cell viability assay in 384 well format. The series is classed as toxicity, cell-based. The arrangement: dose 125 nL, time 70.5 hour; concentration not given beside the values. The conditions noted are these: HepG2 cells, read-out: Inhibition.
Turning to `CCS(=O)(=O)NCCNCc1cc(F)ccc1Br`, the cytotoxicity at 70.5 h is 14.4%.
With `O=C(NCCCOCC1CC1)Nc1ccc(-n2cncn2)c(F)c1` the figure was -13.3%; with `CNC(=O)CCOC(=O)c1cccc(-n2ccc(C(F)(F)F)n2)c1`, 0.427%.
As to `CCOC(=O)C1CN(S(=O)(=O)CC)Cc2ncn(CC)c21` (centres undefined), the cytotoxicity at 70.5 h came to 0.473%.
As for `O=C(C1CCOC1)N1CCC2(CC1)CN(c1ncccn1)CCO2` (centres undefined), the cytotoxicity at 70.5 h was determined as 22.2%.
With `N#Cc1nccnc1N1CCN(CCOCc2ccccc2)CC1` the figure was 16.9%; with `O=C(O)c1cnc(OCC2CC2)c(Br)c1`, -4.12%.
With `O=C1CN(C(=O)CCn2c(C(F)(F)F)cc3cccnc32)CCN1`, the cytotoxicity at 70.5 h came out at 4.91%.
With `CCc1noc(CN2C[C@H]3CC[C@@H]2CN(C2Cc4ccccc4C2)C3)n1` the figure was 4.55%.
With `Cc1cc(CN2CCC(C(=O)O)(n3ccc(-c4ccco4)n3)CC2)on1` the figure was -2.92%; with `O=c1cc(CN2CCCC2)nc2n1CCCN(Cc1ccsc1)C2`, -17.6%; with `COCCNC(=O)CN(C)C(C)c1nc(C)no1` (centres undefined), 3.14%.
With `CC(=O)Nc1cc(C(=O)Nc2cc(CC(C)(C)C)nn2C)ccc1F` the figure was 14.4%.
In the case of `COCCN(Cc1ccoc1)C(=O)c1ccccn1`, the cytotoxicity at 70.5 h was -3.55%.
For `CCCc1nc(C)c(C(=O)NCCNc2ncccn2)s1`, the cytotoxicity at 70.5 h is -6.59%.
Consider `COCCCN1C(=O)CC(N2CCN(c3ccc(F)cc3)CC2)C1=O` (centres undefined), for which the cytotoxicity at 70.5 h is -1.4%.
The value for `O=C(c1cscn1)N1CCCC12CCCN(S(=O)(=O)c1ccccc1)C2` (centres undefined) was -2.41%; that for `N#Cc1cc(NC(=O)C2CC=CC2)ccc1N1CCC(O)CC1` was -0.67%; that for `Cc1cc(C(=O)O)cc(S(=O)(=O)Nc2ccc3c(c2)OCCO3)c1C` was -3.8%.
With `CC(C)Cc1noc(CC2CCS(=O)(=O)C2)n1` (centres undefined) the figure was -6.88%; with `CC(Cc1ccco1)NC(=O)NCc1ncnn1C` (centres undefined), 3.51%; with `c1cn(Cc2nnc(C3CCN(C4CCOCC4)CC3)n2C2CC2)cn1`, -4.93%.
`Cc1noc(C)c1-c1nc(NCCN(C)C)ncc1-c1cnccn1`: the cytotoxicity at 70.5 h was -6.59%.
The value for `CCc1ccc(S(=O)(=O)NCC2CCN(c3cnccn3)CC2)s1` was -10.3%; that for `CC(C)=CCC1(C(=O)O)CCCN(c2cc(N)ncn2)C1` (centres undefined) was 6.26%; that for `CC(C)(NC(=O)c1ccc(-c2ccccc2F)s1)C(N)=O` was 12.6%.
The value for `Cc1ccc(CN2CC[C@@H]3[C@@H](CO[C@H]3CN3CCN(C)CC3)C2)s1` was 14.3%.
With `CNC(=O)C(NC(C)=O)c1ccc(F)c(F)c1` (centres undefined) the figure was -1.65%.
As to `O=C1CCNc2ccc(F)cc2CN1Cc1ccccc1`, the cytotoxicity at 70.5 h is 2.31%.
Regarding `CCCC1(CO)CCCN(C(=O)CNC(N)=O)C1` (centres undefined), the cytotoxicity at 70.5 h was -28.7%.
The value for `O=c1c2ccccc2nc2n1C(CSc1ccc(F)cc1)CN2` (centres undefined) was 28.4%; that for `COc1ccc2nnc(C(=O)NCC3CCCC3)nc2c1` was -4.54%; that for `O=C(c1ccco1)N1CCCC(c2cc(C(F)(F)F)[nH]n2)C1` (centres undefined) was -7.38%.
With `O=C(O)c1ccccc1C1CCN(C2Cc3ccccc3C2)C1` (centres undefined) the figure was -1.24%.
With `COc1ccccc1C(C)(C)NC(=O)NC1CCC(O)CC1` (centres undefined) the figure was -15.4%.
For `CSc1ncn(-c2nc(N(C)C)nc(N(C)C)n2)n1`, the cytotoxicity at 70.5 h was found to be 36.4%.
The value for `CCc1c(C)nc2n(c1=O)CC(C(=O)Nc1ncccc1C)CS2` (centres undefined) was -8.04%; that for `CCN1CCC(CNC(=O)NCc2cc(-c3ccc(C)cc3)no2)C1` (centres undefined) was -1.11%.
With `NC(=O)c1cccc(C(=O)N2CCCC(n3ccnc3)C2)c1` (centres undefined) the figure was -3.58%; with `COc1ccc(C(=O)N(CCC#N)Cc2ccccn2)cc1`, -2.45%.
The value for `O=C(c1cc(C2CC2)[nH]n1)N1CCCN(c2nccs2)CC1` was -5.32%.
In the case of `Cc1cccc(CN2CCn3cc(CNC(=O)CC4CC4)nc3C2)n1`, the cytotoxicity at 70.5 h is -5.24%.
The value for `O=C(Cn1ccc2c(Cl)cccc21)N1CCCC1` was -1.08%.
With `Cc1cc(C(=O)Nc2ccc3c(c2)N(C)CCN(C)C3)on1` the figure was -5.18%; with `CC(C)NC(=O)N1CCn2c(nnc2C2CCCN2)C1` (centres undefined), -9.64%.
The value for `N#CCCN(Cc1ccco1)C(=O)COC1CCCCC1` was 21.5%; that for `Cc1nccn1CC1CCCN1S(=O)(=O)Cc1cccc(C#N)c1` (centres undefined) was 29.1%.
Take `CCC(=O)c1ccc(OCC(=O)NC(C)Cc2cc(C)n[nH]2)cc1` (centres undefined): the cytotoxicity at 70.5 h was -8.59%.
With `CC(C)(C)OC(=O)N1CCCc2ccc(NCc3cc[nH]c3)cc21` the figure was -9.07%.
With `COc1ccccc1[C@@H]1CN(Cc2cc(C(C)(C)C)[nH]n2)C[C@H]1C(=O)O` the figure was -7.86%; with `Cc1cn2c(n1)CCC(NC(=O)c1ccc(OCC3CC3)nc1)C2` (centres undefined), -3.71%.
With `COCC1CC2(CCN(Cc3ccoc3)CC2)CN1Cc1ccccn1` (centres undefined) the figure was 16.1%; with `CC(C)[C@H](CO)Nc1nccc(-c2c[nH]nc2-c2ccncc2)n1`, -3.12%.
As for `Cc1ccc2c(c1)c(CNC(=O)C1CC(=O)N(CCN(C)C)C1)nn2C` (centres undefined), the cytotoxicity at 70.5 h was -0.487%.
With `CCOCCC(=O)N1CCCCC1CCn1cccn1` (centres undefined) the figure was -6.8%.
The value for `CCCN1Cc2ccccc2NC(=O)C12CCNC2` (centres undefined) was -1.87%.
With `CN(C)C(=O)CNC(=O)CCn1ncc2c(Cl)cccc21` the figure was -5.6%.
Turning to `CN(c1cccnc1N1CCCC1)S(=O)(=O)c1cccs1`, the cytotoxicity at 70.5 h stood at 12.7%.
The value for `O=C(c1ccsc1)N1CCC2(CCN(Cc3ccccn3)C2=O)C1` (centres undefined) was 2.48%.
The value for `CC(CNC(=O)N1CCN(CC(F)F)CC1)Cc1cccs1` (centres undefined) was 1.43%; that for `CC(C)c1n[nH]c(C2CN(C(=O)c3ncoc3C(C)C)CCO2)n1` (centres undefined) was -2.71%.
Regarding `CC(=O)N1CCN(C(=O)CCCc2nc(C(C)C)no2)CC1`, the cytotoxicity at 70.5 h stood at 11.7%.
For the compound `c1ccc(OCCN2CCc3c(ncn3C3CC3)C2)cc1`, the cytotoxicity at 70.5 h was -4.85%.
With `COC1CN(C(=O)CC2CCCC2)CCC(=O)N(C)c2ccccc21` (centres undefined) the figure was 21.5%; with `Cc1cnc(NC(=O)c2ccc(C3CCCN3CC(C)C)s2)s1` (centres undefined), -5.46%; with `COc1ccc(CN2CCC[C@@H]3CN(C(=O)c4ccco4)C[C@@H]32)cc1`, -10.9%.
On to `CC(C)N1c2sc(-c3ccccc3)nc2CC1C(=O)NCCCO` (centres undefined), for which the cytotoxicity at 70.5 h was -5.59%.
With `CN(Cc1nccn1C)S(=O)(=O)Cc1cccc(C#N)c1` the figure was -12.6%; with `CN(Cc1ccco1)[C@@H]1CN(C(=O)C2CCOCC2)C[C@@H]2CCCO[C@@H]21`, 0.92%.
The value for `COc1ccc(C)cc1CN(CC(N)=O)C(C)C` was -3.29%; that for `CC(=O)N1CCCC1c1cc(N2CCN(CC(C)(C)C)CC2)cc(C)n1` (centres undefined) was -7.87%.
The value for `COC(=O)[C@@H]1Cc2[nH]cnc2CN1Cc1cc2ccccc2o1` was -2.5%; that for `COc1ccccc1CN(CC1CCCO1)C(=O)c1cc(C)n[nH]1` (centres undefined) was -14.4%; that for `CCCN(CCC)C(=O)c1cc(CN2CCC(O)CC2)on1` was -6.98%.
`CCN1CCN2CCCN(S(=O)(=O)c3ccc(C)cc3C)C2C1=O` (centres undefined): the cytotoxicity at 70.5 h is -4.62%.
With `Cc1ncc(CNCC(C)O)c2cc(C(=O)c3ccc(Br)cc3)oc12` (centres undefined) the figure was -16.1%; with `CCN(C)C[C@@H]1CN(Cc2cnc3c(S(C)(=O)=O)cnn3c2)C[C@@H]1CO`, 1.07%; with `Cn1nc(C2CNCCO2)cc1CCOc1cccc(C(F)(F)F)c1` (centres undefined), 7.31%.
The value for `Cc1ccc(C(=O)N2CCN3C[C@H](Oc4cccnc4)C[C@H]3C2)cn1` was 4.6%; that for `CN(C)CCN1C[C@@H]2CN(C(=O)C3CC=CC3)C[C@@H]2C1=O` was -10.8%; that for `CC(C)[C@H]1CN(C(=O)CC2CCC2)C[C@@H]1N(C)C` was 18.9%.
With `CCCc1cc(CN(C)C2CSCCSC2)n[nH]1` the figure was -6.5%; with `O=C(NCCc1cc(F)ccc1F)NC(CO)c1ccccc1` (centres undefined), 19.3%; with `CCc1nc(CN2CCCN(c3ncnc4ccsc34)CC2)no1`, 8.93%.
In the case of `Cc1nc(C)n(C2CCCN(C(=O)CCOCC(C)C)C2)n1` (centres undefined), the cytotoxicity at 70.5 h turned out to be 11%.
The value for `COc1c(CNCc2ccc3c(c2)OCO3)c(C(C)C)nn1C` was 18.3%.
The value for `Cc1nc(NCC2CCOCC2)cc(C2CCN2S(C)(=O)=O)n1` (centres undefined) was -1.73%.
The value for `O=C(Nc1cccnc1)[C@H]1C[C@@H]2CN(S(=O)(=O)C3CC3)C[C@H]1O2` was -4.16%; that for `CCN(CC)CC1CCN(C(=O)CCn2cccn2)CC1` was -1.21%.
With `Cc1nc(CN2CCCC(NCCc3ccccc3Cl)C2)no1` (centres undefined), the cytotoxicity at 70.5 h is -6.15%.
With `CC(C)C[C@H](NC(=O)CNC(=O)OC(C)(C)C)C(=O)OC(C)(C)C` the figure was -0.919%; with `C[C@]1(O)CN(Cc2ncccc2F)CC[C@@H]1Oc1cccc(F)c1`, -5.53%; with `CC(C)[C@H](NS(C)(=O)=O)C(=O)NCc1cc(-c2ccco2)n[nH]1`, -13.8%.
With `O=C1CC2(CCN(c3nncs3)C2)CN1c1ccccc1` (centres undefined) the figure was -1.13%.
With `Cc1[nH]c(=O)[nH]c(=O)c1CN1CCCC(CCc2ccc(F)cc2F)C1` (centres undefined) the figure was -9.69%; with `CCC1CN(C(=O)c2ccc(Cl)cc2O)CCN1C(C)C` (centres undefined), -6.93%; with `CCOCCCNC(=O)c1cc(Br)c2c(c1)OCCO2`, -8.79%.
As to `CN1CCCC(CCC(=O)N2CCc3sc(C(=O)N(C)C)cc3C2)C1` (centres undefined), the cytotoxicity at 70.5 h is -5.77%.
For `Cn1ncc2c1CCCC2NCc1ccc(Br)s1` (centres undefined), the cytotoxicity at 70.5 h stood at 3.28%.
